ChEMBL document CHEMBL1201862, “PubChem BioAssay data set” (2004)
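Each compound was tested at five concentrations against cells in 96-well plates for 48 hours. The concentration for 50% growth inhibition is given as GI50.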 Active and inactive are the calls of the source. Rule as the data show it: active = GI50 up to about 1.1 µM and inactive = higher.

What was measured:
Experiment in all cases: inhibition of tumour cell growth, NCI panel, 48 h
RXF 393 = system: RXF 393
SF-295 = system: SF-295
M14 = system: M14
LOX IMVI = system: LOX IMVI
SF-268 = system: SF-268
NCI-H23 = system: NCI-H23
HT-29 = system: HT-29
Malme-3M = system: Malme-3M
UACC-62 = system: UACC-62
K562 = system: K562
UO-31 = system: UO-31
UACC-257 = system: UACC-257
SNB-75 = system: SNB-75
TK-10 = system: TK-10
SNB-19 = system: SNB-19
EKVX = system: EKVX
SR = system: SR

Measured: GI50

O=C(CSc1nnc(Cc2ccccc2)o1)Nc1cccc([N+](=O)[O-])c1
inactive: RXF 393 > 100 µM | SF-295 > 100 µM | M14 > 100 µM | LOX IMVI > 100 µM | SF-268 > 100 µM | NCI-H23 > 100 µM | HT-29 > 100 µM | Malme-3M > 100 µM | UACC-62 > 100 µM | K562 > 100 µM | UO-31 > 100 µM | UACC-257 > 100 µM | SNB-75 58.5 µM | TK-10 > 100 µM

COc1cc(OC)c(C(=O)c2cccs2)cc1N
inactive: RXF 393 > 100 µM | SF-295 > 100 µM | M14 > 100 µM | LOX IMVI > 100 µM | SF-268 > 100 µM | NCI-H23 > 100 µM | SNB-19 > 100 µM | HT-29 > 100 µM | Malme-3M > 100 µM | UACC-62 > 100 µM | K562 > 100 µM | UO-31 96.6 µM | UACC-257 > 100 µM | SNB-75 > 100 µM | TK-10 > 100 µM | EKVX > 100 µM

CCOc1ccc(NCC(=O)N2CC(=O)Nc3ccccc32)cc1
inactive: RXF 393 > 100 µM | SF-295 > 100 µM | M14 > 100 µM | LOX IMVI > 100 µM | SR > 100 µM | SF-268 > 100 µM | NCI-H23 > 100 µM | SNB-19 > 100 µM | HT-29 > 100 µM | Malme-3M > 100 µM | UACC-62 > 100 µM | K562 > 100 µM | UO-31 > 100 µM | UACC-257 > 100 µM | SNB-75 > 100 µM | TK-10 > 100 µM | EKVX > 100 µM

COc1cc(NC(C)=O)c2[nH]c3c(C)cc(NC(C)=O)c(C)c3c2c1
inactive: RXF 393 > 100 µM | SF-295 > 100 µM | M14 > 100 µM | SF-268 > 100 µM | NCI-H23 > 100 µM | SNB-19 > 100 µM | HT-29 > 100 µM | K562 > 100 µM | UO-31 > 100 µM | SNB-75 > 100 µM | TK-10 > 100 µM | EKVX > 100 µM

O=C1c2ccccc2C(=O)N1Cc1ccccc1-c1c2nc(c(-c3ccccc3CN3C(=O)c4ccccc4C3=O)c3ccc([nH]3)c(-c3ccccc3CN3C(=O)c4ccccc4C3=O)c3nc(c(-c4ccccc4CN4C(=O)c5ccccc5C4=O)c4ccc1[nH]4)C=C3)C=C2
inactive: RXF 393 > 100 µM | SF-295 72.1 µM | M14 31.2 µM | LOX IMVI > 100 µM | SR > 100 µM | SF-268 > 100 µM | NCI-H23 > 100 µM | HT-29 > 100 µM | Malme-3M > 100 µM | UACC-62 > 100 µM | K562 > 100 µM | UO-31 > 100 µM | UACC-257 > 100 µM | SNB-75 > 100 µM | TK-10 > 100 µM

C/C(CC(=O)Nc1ccc(Cl)cc1)=N\NC(=O)C[n+]1ccccc1
inactive: RXF 393 > 100 µM | SF-295 > 100 µM | M14 > 100 µM | LOX IMVI > 100 µM | SF-268 > 100 µM | NCI-H23 > 100 µM | HT-29 > 100 µM | Malme-3M > 100 µM | UACC-62 > 100 µM | K562 > 100 µM | UO-31 > 100 µM | UACC-257 > 100 µM | SNB-75 > 100 µM | TK-10 > 100 µM | EKVX > 100 µM

COC(=O)C(CC(C)C)NC(=O)NC12CC3CC(CC(F)(C3)C1)C2 (centres undefined)
inactive: RXF 393 > 100 µM | M14 > 100 µM | LOX IMVI > 100 µM | NCI-H23 > 100 µM | SNB-19 > 100 µM | HT-29 > 100 µM | Malme-3M > 100 µM | UACC-62 > 100 µM | K562 > 100 µM | UO-31 46.6 µM | UACC-257 > 100 µM | SNB-75 27.1 µM | TK-10 > 100 µM | EKVX > 100 µM

Cc1c(C)c2cc3c(=O)c(CCl)coc3c(C)c2oc1=O
inactive: RXF 393 57 µM | SF-295 > 100 µM | M14 > 100 µM | LOX IMVI > 100 µM | SF-268 > 100 µM | NCI-H23 > 100 µM | SNB-19 > 100 µM | Malme-3M > 100 µM | UACC-62 > 100 µM | K562 > 100 µM | UO-31 > 100 µM | UACC-257 > 100 µM | SNB-75 76.4 µM | TK-10 > 100 µM | EKVX > 100 µM

COC(=O)C(Cc1nc2ccc(Cl)cc2nc1O)/C(=N/O)C(=O)Nc1cccc(Cl)c1C (centres undefined)
inactive: RXF 393 88.1 µM | SF-295 > 100 µM | M14 > 100 µM | LOX IMVI > 100 µM | SR > 100 µM | SF-268 > 100 µM | NCI-H23 > 100 µM | SNB-19 > 100 µM | HT-29 > 100 µM | Malme-3M > 100 µM | UACC-62 > 100 µM | K562 > 100 µM | UO-31 > 100 µM | UACC-257 > 100 µM | SNB-75 65.6 µM | TK-10 > 100 µM | EKVX 10.1 µM

CC(C)OC(=O)C1Cc2c([nH]c3ccccc23)C(c2ccccc2)N1 (centres undefined)
inactive: RXF 393 23.8 µM | SF-295 > 100 µM | M14 81.7 µM | LOX IMVI > 100 µM | SF-268 56.9 µM | NCI-H23 67.1 µM | SNB-19 > 100 µM | HT-29 98.4 µM | Malme-3M 25.7 µM | UACC-62 > 100 µM | K562 50.1 µM | UO-31 18 µM | UACC-257 68.5 µM | SNB-75 18.3 µM | TK-10 > 100 µM | EKVX 89.3 µM

CCOC(=O)/C(C#N)=C1/C(O)=C(C(=O)OC)C(C(=O)OC)=C1C(=O)OC.c1ccncc1
inactive: RXF 393 > 100 µM | SF-295 > 100 µM | M14 > 100 µM | LOX IMVI > 100 µM | SF-268 > 100 µM | NCI-H23 > 100 µM | SNB-19 > 100 µM | HT-29 > 100 µM | Malme-3M > 100 µM | UACC-62 > 100 µM | K562 > 100 µM | UO-31 > 100 µM | UACC-257 > 100 µM | SNB-75 > 100 µM | TK-10 > 100 µM | EKVX > 100 µM

CCOc1cccc2sc(N)nc12
inactive: RXF 393 > 100 µM | SF-295 > 100 µM | M14 > 100 µM | LOX IMVI > 100 µM | SF-268 > 100 µM | NCI-H23 > 100 µM | SNB-19 > 100 µM | HT-29 > 100 µM | Malme-3M > 100 µM | UACC-62 > 100 µM | K562 > 100 µM | UO-31 56.1 µM | UACC-257 > 100 µM | SNB-75 > 100 µM | TK-10 > 100 µM | EKVX 49 µM

Cc1ccccc1NC(=O)C(=O)CC(=O)c1ccc([N+](=O)[O-])cc1
inactive: RXF 393 > 100 µM | SF-295 > 100 µM | M14 > 100 µM | LOX IMVI > 100 µM | SF-268 > 100 µM | NCI-H23 > 100 µM | SNB-19 > 100 µM | HT-29 > 100 µM | Malme-3M > 100 µM | UACC-62 > 100 µM | UO-31 > 100 µM | UACC-257 > 100 µM | SNB-75 39.6 µM | TK-10 > 100 µM | EKVX > 100 µM

C[N+](C)(C)CC(=O)N/N=C(\CCC(=O)NCCc1ccccc1)CC(=O)c1ccccc1
inactive: SF-295 > 100 µM | M14 > 100 µM | LOX IMVI > 100 µM | SF-268 > 100 µM | NCI-H23 > 100 µM | SNB-19 > 100 µM | HT-29 > 100 µM | Malme-3M > 100 µM | UACC-62 > 100 µM | K562 > 100 µM | UO-31 > 100 µM | UACC-257 > 100 µM | TK-10 > 100 µM | EKVX > 100 µM

CCOC12OC3=C(CC1CC1=C(CCC1=O)O2)C(=O)CC3 (centres undefined)
inactive: RXF 393 > 100 µM | SF-295 > 100 µM | M14 > 100 µM | LOX IMVI > 100 µM | SR > 100 µM | SF-268 > 100 µM | NCI-H23 > 100 µM | SNB-19 > 100 µM | HT-29 > 100 µM | Malme-3M > 100 µM | UACC-62 > 100 µM | K562 > 100 µM | UO-31 > 100 µM | UACC-257 > 100 µM | SNB-75 > 100 µM | TK-10 > 100 µM | EKVX > 100 µM

CCOC(=O)CC1=CSC2=NCCN12
inactive: RXF 393 > 100 µM | SF-295 > 100 µM | M14 > 100 µM | LOX IMVI > 100 µM | SF-268 > 100 µM | NCI-H23 > 100 µM | SNB-19 > 100 µM | HT-29 > 100 µM | Malme-3M > 100 µM | UACC-62 > 100 µM | K562 > 100 µM | UO-31 > 100 µM | UACC-257 > 100 µM | SNB-75 > 100 µM | TK-10 > 100 µM | EKVX > 100 µM

COc1cc(C(=O)C/C(CCC(=O)Nc2ccc(Cl)cc2Cl)=N/NC(=O)C(N)=O)ccc1O
inactive: SF-295 > 100 µM | M14 > 100 µM | SF-268 > 100 µM | NCI-H23 > 100 µM | SNB-19 > 100 µM | HT-29 > 100 µM | Malme-3M > 100 µM | UACC-62 65.9 µM | K562 76.2 µM | UO-31 72.9 µM | UACC-257 > 100 µM | SNB-75 7.91 µM | TK-10 > 100 µM | EKVX > 100 µM
